Test results reported in US11142515B2, “Pyrazolyl-ureas as kinase inhibitors” (RESPIVERT LIMITED, priority 2014, dated 2021).

Tests used:
[1] = molecular target: T1, p38 MAPKα isoform (MAPK14) (Homo sapiens, UniProt Q16539); test: p38 MAPKα enzyme inhibition (Z-LYTE FRET); format: biochemical; conditions: Table 2B, unit inferred; read-out: p38 MAPKα (Enzyme Profile)
T1 construct: purchased Life Technologies
Summary of the method: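 Recombinant human MAPK14 (40 ng/mL stock) was preincubated 2 h at RT with compound (stock dilutions 0.0012-40 μg/mL). The Z-LYTE FRET read-out used a MAPKAP-K2-derived peptide, and protease development for 1 h cleaved only non-phosphorylated peptide. Phosphorylation was calculated from the coumarin/fluorescein emission ratio.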

p38MAPKγ (MAPK12) = molecular target: T2, p38MAPKγ (MAPK12) (Homo sapiens, UniProt P53778); test: p38 MAPKγ enzyme inhibition (Z-LYTE FRET); format: biochemical; conditions: Table 2B, unit inferred; read-out: p38 MAPKγ (Enzyme Profile)
T2 construct: purchased Life Technologies
T2 sequence (P53778 1-367): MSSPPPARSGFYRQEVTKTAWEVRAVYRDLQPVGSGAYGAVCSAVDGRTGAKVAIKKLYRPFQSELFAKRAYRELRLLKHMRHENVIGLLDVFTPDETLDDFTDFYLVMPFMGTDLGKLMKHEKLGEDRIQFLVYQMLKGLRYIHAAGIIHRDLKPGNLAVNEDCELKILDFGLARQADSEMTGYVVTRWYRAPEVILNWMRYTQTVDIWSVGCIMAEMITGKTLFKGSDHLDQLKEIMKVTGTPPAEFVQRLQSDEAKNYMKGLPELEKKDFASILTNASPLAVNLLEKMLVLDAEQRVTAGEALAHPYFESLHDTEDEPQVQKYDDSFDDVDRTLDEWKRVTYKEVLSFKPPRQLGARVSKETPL
Summary of the method: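 Z-LYTE read-out: after 1 h protease development, only non-phosphorylated peptide is cleaved, and the donor/acceptor (coumarin/fluorescein) ratio reports phosphorylation. Beforehand, enzyme and compound (stock concentrations 0.0012–40 μg/mL) were preincubated 2 h at RT, then the kinase reaction ran 1 h at RT with peptide and ATP (8 μM and 400 μM stocks).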

T1 sequence (Q16539 whole entry, canonical isoform): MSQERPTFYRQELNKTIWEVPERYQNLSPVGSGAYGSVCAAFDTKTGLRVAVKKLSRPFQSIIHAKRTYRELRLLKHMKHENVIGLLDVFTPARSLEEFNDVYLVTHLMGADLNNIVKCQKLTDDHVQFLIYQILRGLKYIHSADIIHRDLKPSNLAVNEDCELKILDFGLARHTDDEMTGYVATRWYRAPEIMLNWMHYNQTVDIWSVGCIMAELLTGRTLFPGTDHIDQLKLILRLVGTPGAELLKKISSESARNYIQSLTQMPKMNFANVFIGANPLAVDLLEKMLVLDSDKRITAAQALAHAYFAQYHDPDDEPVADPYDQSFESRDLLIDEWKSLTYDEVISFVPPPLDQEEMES

IC50 [1] | IC50 (p38MAPKγ (MAPK12)) | SMILES
54 nM | > 14000 nM | COC1CN(C(=O)c2cnc(Nc3cc(COc4ccc(NC(=O)Nc5cc(C(C)(C)C)nn5-c5cccc(C)c5)c5ccccc45)ccn3)cn2)C1 [Example 224, 1-(3-(tert-butyl)-1-(m-tolyl)-1H-pyrazol-5-yl)-3-(4-((2-((5-(3-methoxyazetidine-1-carbonyl)pyrazin-2-yl)amino)pyridin-4-yl)methoxy)naphthalen-1-yl)urea]
14 nM | 342 nM | COCC1CN(C(=O)c2cnc(Nc3cc(COc4ccc(NC(=O)Nc5cc(C(C)(C)C)nn5-c5ccc(C)cc5)c5ccccc45)ccn3)cn2)C1 [Example 225, 1-(3-(tert-butyl)-1-(p-tolyl)-1H-pyrazol-5-yl)-3-(4-((2-((5-(3-(methoxymethyl)azetidine-l-carbonyl)pyrazin-2-yl)amino)pyridin-4-yl)methoxy)naphthalen-1-yl)urea]
35 nM | > 13800 nM | COc1cc(-n2nc(C(C)(C)C)cc2NC(=O)Nc2ccc(OCc3ccnc(Nc4cnc(C(=O)N5CCCC5)cn4)c3)c3ccccc23)ccc1C [Example 226, 1-(3-(tert-butyl)-1-(3-methoxy-4-methylphenyl)-1H-pyrazol-5-yl)-3-(4-((2-((5-(pyrrolidine-1-carbonyl)pyrazin-2-yl)amino)pyridin-4-yl)methoxy)naphthalen-1-yl)urea]
27 nM | > 14100 nM | CCc1ccc(-n2nc(C(C)(C)C)cc2NC(=O)Nc2ccc(OCc3ccnc(Nc4cnc(C(=O)N5CCCC5)cn4)c3)c3ccccc23)cc1 [Example 229, 1-(3-(tert-butyl)-1-(4-ethyl-phenyl)-1H-pyrazol-5-yl)-3-(4-((2-((5-(pyrrolidine-1-carbonyl)pyrazin-2-yl)amino)pyridin-4-yl)methoxy)naphthalen-1-yl)urea]
18 nM | 117 nM | Cc1ccc(-n2nc(C(C)(C)C)cc2NC(=O)Nc2ccc(OCc3ccnc(Nc4cnc(C(=O)N5CCC[C@H](O)C5)cn4)c3)c3ccccc23)cc1 [Example 232, (S)-1-(3-(tert-butyl)-1-(p-tolyl)-1H-pyrazol-5-yl)-3-(4-((2-((5-(3-hydroxypiperidine-1-carbonyl)pyrazin-2-yl)amino)pyridin-4-yl)methoxy)naphthalen-1-yl)urea]

Second part, the compound before the results:

SMILES | IC50 [1] | IC50 (p38MAPKγ (MAPK12))
COc1cc(C)cc(-n2nc(C(C)(C)C)cc2NC(=O)Nc2ccc(OCc3ccnc(Nc4cnc(C(=O)N5CCCC5)cn4)c3)c3ccccc23)c1 [Example 227, 1-(3-(tert-butyl)-1-(3-methoxy-5-methylphenyl)-1H-pyrazol-5-yl)-3-(4-((2-((5-(pyrrolidine-1-carbonyl)pyrazin-2-yl)amino)pyridin-4-yl)methoxy)naphthalen-1-yl)urea] | 43 nM | > 13800 nM
COc1ccc(-n2nc(C(C)(C)C)cc2NC(=O)Nc2ccc(OCc3ccnc(Nc4cnc(C(=O)N5CCCC5)cn4)c3)c3ccccc23)cc1F [Example 228, 1-(3-(tert-butyl)-1-(3-fluoro-4-methoxyphenyl)-1H-pyrazol-5-yl)-3-(4-((2-((5-(pyrrolidine-1-carbonyl)pyrazin-2-yl)amino)pyridin-4-yl)methoxy)naphthalen-1-yl)urea] | 35 nM | > 13700 nM
CCc1cccc(-n2nc(C(C)(C)C)cc2NC(=O)Nc2ccc(OCc3ccnc(Nc4cnc(C(=O)N5CCCC5)cn4)c3)c3ccccc23)c1 [Example 230, 1-(3-(tert-butyl)-1-(3-ethyl-phenyl)-1H-pyrazol-5-yl)-3-(4-((2-((5-(pyrrolidine-1-carbonyl)pyrazin-2-yl)amino)pyridin-4-yl)methoxy)naphthalen-1-yl)urea] | 43 nM | > 14100 nM
Cc1cccc(-n2nc(C(C)(C)C)cc2NC(=O)Nc2ccc(OCc3ccnc(Nc4cnc(C(=O)NCCCO)cn4)c3)c3ccccc23)c1 [Example 231, 5-((4-(((4-(3-(3-(tert-butyl)-1-(m-tolyl)-1H-pyrazol-5-yl)ureido)naphthalen-1-yl)oxy)methyl)pyridin-2-yl)amino)-N-(3-hydroxypropyl) pyrazine-2-carboxamide] | 15 nM | 95 nM
